The numbers were not newly measured in patent publication US20080051459A1, “LONG TERM 24-HOUR INTESTINAL ADMINISTRATION OF LEVODOPA/CARBIDOPA” (Solvay Pharmaceuticals GmbH, priority 2006, published 2008), which cites them from elsewhere.

This data set deals with patient. The note with it: one patient; from 86 to 100 mg/hour in about 5 weeks.

Structures are written as SMILES.

For `N[C@@H](Cc1ccc(O)c(O)c1)C(=O)O` [levodopa], the “Increase in administration rate (dose requirement)” value was 16%.
